Experimental findings from patent US20050203119A1, “Dihydropyridine compounds for treating or preventing metabolic disorders” (priority 2003, published 2005) are described below.

For one series, the system named is primary rat hepatocytes. The experiment in a line: In vitro cytotoxicity study on primary rat hepatocytes (MTS). The following applies: Hepatocyte, 20 hours treatment with 0.4, 2, 10 and 50 μM, absorbance at 490 nm, read-out: Average EC50 (hepatocytes from at least 2 rats). Type of series: cell-based. The protocol:
Male SD rats having body weights of approximately 200 g were used for the study. Hepatocytes were freshly isolated and seeded with 15,000 cells/well in 96 wells coated with 100 μl collagen. The hepatocytes were cultured for 3-4 hours with HCM Bulletkit medium (Clonetics #CC-3198) then treated with 0.4 μM, 2 μM, 10 μM and 50 μM of a test compound for 20 hours. Flepatocytes were then incubated with MTS reagent (Promega #G5421) for 2-3 hours and absorbance in each well at […] was measured to determine the number of living cells in each well (the absorbance at 490 nm is directly proportional to the number of living cells in the well). The EC50 for each test compound was calculated with the Excel Xlfit wizard program based on the optical density values compared with vehicle treated cells.

Series [1] deals with C57BLKS/J-m+/+Lepr db male animals. Nature of the series: Glucose reduction by Compound 9 in db/db mouse model (Example 112). Type of series: in vivo. As to conditions: 3.5 hours after administration. As for the experimental part: C57BLKS/J-m+/+Lepr db male animals (8 weeks old) were purchased from the Jackson Laboratory (Bar Harbor, Me.) in this study. All animals were acclimated for at least one week, and randomized for equivalent mean blood glucose on day 0. Animals were divided into either vehicle or treatment groups (n=8/group). Compound 9 was formulated in 0.5% methylcellulose (ps400) and administered by oral gavage at 50 mg/kg once daily for 7 consecutive days. Blood glucose was monitored using One Touch Basic glucose monitor (Abbott) 3.5 hours after administration of test compound on day 3 and 7.

For series [2], the system named is NIDDM male mice (C57BLKS/J-m+/+Lepr db). Nature of the series: Glucose reduction in db/db mouse model, oral once daily for 7 days (Example 111). As to conditions: for Serum Glucose % Pre-Treatment Baseline: 90 min post-dosing. Type of series: in vivo. As for the experimental part:
Non-insulin dependent diabetic mellitus (NIDDM) male mice (C57BLKS/J-m+/+Lepr db) weighing 60±5 g (12 weeks of age) provided by the Institute for Animal Reproduction (IAR, Japan) were used. […] The animals were housed in Individually Ventilated Cages Racks (IVC Racks, 36 Mini Isolator systems) throughout the experiment. Each APEC cage was autoclave sterilized and contained 4 mice and then maintained in a hygienic environment under controlled temperature (22-24° C.) and humidity (60-70%) with 12-hour light/dark cycles. The animals were given sterilized lab Chow and sterilized distilled water ad libitum.
Sterilized distilled water, ELISA Insulin Assay Kit (SPI bio, France), glucose (Merck), Glucose-HA assay kit (Wako, Japan), methylcellulose (Sigma), and troglitazone (BioMOL).
Compound 1 was suspended in 0.5% methylcellulose. Compound 1 at 100, 50 and 30 mg/kg as well as vehicle were administered to NIDDM male mice weighing 60±5 g (11-12 weeks of age), orally once daily for 7 consecutive days starting immediately after the first blood sampling (pre-treatment on day 1). Blood sampling was repeated at 90 minutes post-dosing on day 3 and day 7. The dosing volume was 10 ml/kg. Serum glucose level in the pre- and post-treatment periods were determined by enzymatic (Mutaratase-GOD) method. Post-treatment serum glucose value expressed in percentage of respective pre-treatment values were calculated and unpaired Student's t test was then applied for comparison between compound treated and vehicle control groups. Differences were considered significant at P<0.05. In addition, the liver weight and body weight were recorded to determine the ratio of liver to body weight.

For series [3], the system named is C57BLKS/J db/db male mice. The experiment in a line: Glucose reduction, Compound 1 in combination with rosiglitazone, db/db mice (Example 116, FIG. 2). As to conditions: Compound 1 alone, 50 mg/kg. Type of series: in vivo, mouse.
Series [4] has as its system obese diabetic mice (C57BL/6 ob/ob). The experiment in a line: Glucose reduction in ob/ob mouse model (Example 113). Type of series: in vivo. The following applies: 3.5 hours after administration. As for the experimental part:
Genetically mutated obese diabetic mice (C57BL/6 ob/ob) were purchased from the Jackson Laboratory (Bar Harbor, Me.). Eight weeks old male animals were employed in this study. After acclimation, mice were randomized for equivalent mean blood glucose on day 0 with eight mice each group, and received either vehicle or Compound 1 in 0.5% methylcellulose (ps400) by oral gavage once daily for 8 consecutive days. Plasma glucose was monitored 3.5 hours after administration of test compound on day 3 and 8.

Series [5] relates to C57BLKS/J db/db male mice. The experiment in a line: Glucose, insulin and triglyceride reduction in db/db mouse model, 10 days (Example 115). Type of series: in vivo. The following applies: orally once daily for 10 days. The protocol: Compound 1 was evaluated for its effect on plasma glucose, triglyceride and insulin in C57BLKS/J db/db male mice.
Compound 1 or vehicle was administered orally once daily for 10 consecutive days. Animals were divided into either vehicle or treatment groups (n=8 per group), and blood glucose, serum triglyceride and insulin were tested at the end of assay by Ani Lytic Inc (Baltimore, Md.).

In a further series the test system is Male SD rats. As to conditions: rat, in vivo. As for the experimental part: Male SD rats weighing 350-420 g were anesthetized with 2-3% isoflurane. The femoral artery and vein were catheterized and connected to a mean arterial blood pressure (MAP) and heart rate (HR) monitor and a continuous intravenous infusion pump. Under anesthesia, MAP and HR were recorded 10-20 minutes prior to and during the continuous intravenous infusion of test compounds for 60-70 minutes. The infusion rate, 0.14-0.16 ml/kg/minute, was determined on the basis of vehicle tolerance. The infusion doses, 1.0-1.25 mg/kg/minute, were selected, depending upon the solubility of the compound and effects on MAP and HR of the positive control compounds at the lethal dose. The maximal effective dose or lethal dose of test compounds were determined accordingly.

Setting [6] is: day 3, 50 mg/kg oral gavage once daily.

Usually EC50 stands for the midpoint of the concentration-response curve. In the case of `CCOC(=O)C1=C(COCCN)NC2=C(C(=O)CC(C)(C)C2)C1c1ccccn1` (centres unmarked) [Compound 9, 2-(2-amino-ethoxymethyl)-7,7-dimethyl-5-oxo-4-pyridin-2-yl-1,4,5,6,7,8-hexahydro-quinoline-3-carboxylic acid ethyl ester], the EC50 in the series with primary rat hepatocytes is more than 50 µM. For the same compound, the “percent normalized reduction in blood glucose relative to vehicle control” value in series [1] (setting [6]) came to 13.6%; in series [1] (day 7, 50 mg/kg oral gavage once daily), 21.1%.

Turning to `CCOC(=O)C1=C(COCCN)NC2=C(C(=O)CC(C)(C)C2)C1c1ccccc1Cl` (centres unmarked) [Compound 1, 2-(2-amino-ethoxymethyl)-4-(2-chloro-phenyl)-7,7-dimethyl-5-oxo-1,4,5,6,7,8-Hexahydro-quinoline-3-carboxylic acid ethyl ester], the “Serum Glucose % Pre-Treatment Baseline” value in series [2] (Day 3, 30 mg/kg orally once daily) was 96.7 ± 2.2 %; in series [2] (Day 3, 50 mg/kg orally once daily), 86.5 ± 3.5 %; in series [2] (Day 3, 100 mg/kg orally once daily), 85.6 ± 2.4 %; in series [2] (Day 7, 30 mg/kg orally once daily), 91.6 ± 3.7%; in series [2] (Day 7, 50 mg/kg orally once daily), 82.9 ± 4.4 %; in series [2] (Day 7, 100 mg/kg orally once daily), 80.9 ± 3.3 %. The “liver weight relative to body weight” value in series [2] (any treatment group (30, 50, 100 mg/kg, 7 days) vs vehicle control) was “No significant difference”. For the same compound, the “blood glucose level, monotherapy” value in series [3] was “reduced glucose levels”. For the same compound, the “percent normalized reduction of serum glucose vs vehicle” value in series [4] (setting [6]) is 30%; in series [4] (day 8, 50 mg/kg oral gavage once daily) it was 22.3%. In series [5], the “% Reduction (relative to vehicle), Glucose” value stood at 14%. Besides, in series [5], the “% Reduction (relative to vehicle), Insulin” value is reported as 19%. In series [5], the “% Reduction (relative to vehicle), Triglyceride” value is given as 17%. In series [5] (end of assay), this compound yielded a Glucose of 327.50 mg/dL. The Insulin in series [5] (end of assay) is 11.32 ng/mL. In addition, in series [5] (end of assay), the Triglyceride was found to be 336.13 mg/dL. Further, in the series on Male SD rats, the “Lethal Dose” value was more than 70 mg/kg.
